{
  "source": "patent US12528805B2",
  "about": "“Solid forms of emetine” (Acer Therapeutics, Inc., priority 2020, dated 2026)",
  "key": {"[1]": {"experiment": "Solid form stability on storage (XRPD re-analysis)", "assay_type": "physicochemical", "procedure": "The solids were dried under vacuum at ambient temperature (about 23° C.) for 17 h. The solids on the XRPD plate were stored at 40° C./75% RH for 22 h then re-analyzed. Amorphous and a mixture of Compound I dihydrochloride Form 2 and Form 6 were obtained (Table 7).\nThe solids were isolated by filtration after a total of 27.5 h at 5° C. and washed with 0.6 mL of cold acetone or 3×0.6 mL of cold heptane. The solids were dried under vacuum at ambient temperature (about 23° C.) for 17 h. The solids on the XRPD plate were stored at 40° C./75% RH for 22 h then re-analyzed by XRPD. Results, which are summarized in Table 8, show mixtures of Compound I dihydrochloride Forms 5 and 6, 5, 2 and 1, and 2 were obtained.\n1.0 mL of water was added to approximately 300 mg of Compound I dihydrochloride Form 1. The resulting mixture was magnetically stirred at 50° C. over about 15 min, then stirred at 50° C. for 0.25 h. The solution was polish filtered (0.45 μm PTFE filter) into a 2 mL push-cap vial and then stirred at 50° C. for 0.25 h, prior to cooling to 5° C. at 0.1° C./min. After 62 h at 5° C., the experiment was sub-sampled and the solid was analyzed by XRPD. The material on the XRPD plate was dried under vacuum at 35° C. under a stream of wet nitrogen (20-38% RH) for about 9 h and then re-analyzed by XRPD. The material on the XRPD plate was stored at 25° C./60% RH for 22 h and then re-analyzed by XRPD. After a total of 87 h at 5° C., solids were isolated by centrifugation (0.22 μm nylon filter) and analyzed by XRPD. The solids were air-dried at ambient temperature (about 22° C.) for 24 h.\nSmall-scale crystallization Experiment 7 was sub-sampled prior to ASA and after ASA was complete, with solids isolated by centrifugation (0.22 μm nylon filter) and analyzed by XRPD.\nApproximately 10 g of Compound I dihydrochloride Form 1 was dissolved in 67 mL of ethanol:water 99:1 v/v at about 60° C. (initial concentration: 150 mg/mL). Polish filtration was carried out (0.2 μm PTFE filter). The solution was transferred to a 250 mL vessel at 60° C. and stirred at 50° C. (solution temperature) and 300 rpm for about 5 min. The solution was seeded with about 100 mg (1 wt. %) of Compound I dihydrochloride Form 2, isolated from small-scale crystallization Experiments 12 and 13, from example 4 above. The seed dissolved rapidly. Anti-solvent addition of 10 mL of heptane (1 volume) was carried out at 2 vol/h (Heptane content of 13%). The solution was re-seeded with a further 100 mg (1 wt. %) of Form 2, isolated from small-scale crystallization Experiment 12. The seed persisted and a slurry formed. The slurry was stirred at 50° C. for 1 h and then anti-solvent addition of 131 mL of heptane at 1.5 vol/h was carried out, to reach 60% heptane. […] An additional 2 volumes of ethanol:water 99:1 v/v was added at the beginning of the ASA to mobilize the slurry. Once ASA was complete, the slurry was cooled to 5° C. at 0.1° C./min. The experiment was sub-sampled after about 2 h at 5° C. The slurry was thick but mixing. After 3.5 h at 5° C., an additional 3.6 mL of water was added to increase the water content to 2% (ethanol:water:heptane ratio of 39:2:59 v/v/v). The experiment was sub-sampled again after 2 h at 5° C. with additional water. After a total of 10 h at 5° C., solids were isolated by filtration and washed with 2 volumes of cold (5° C.) ethanol:heptane 40:60 v/v. The solids were filtered and dried under vacuum at ambient temperature (about 21° C.) for 14.5 h, then analyzed by XRPD."}, "[2]": {"experiment": "Solubility screening by solvent addition technique (approximate solubility)", "assay_type": "physicochemical", "details": "thermodynamic from solid; water; at ambient temperature; small, fine particles remained (Experiment 25)"}, "[3]": {"experiment": "Dynamic vapor sorption (DVS)", "details": "for DVS uptake: 25° C."}, "[4]": {"details": "stored at 40° C./75% RH for 22 h"}},
  "note": "Structures can show the parent of a compound that is named as a salt.",
  "data": [
    {"smiles": "CC[C@H]1CN2CCc3cc(OC)c(OC)cc3[C@@H]2C[C@@H]1C[C@H]1NCCc2cc(OC)c(OC)cc21", "note": "[Form 2 with a trace Form 1]", "values": [
      {"measurement": "Solid form by XRPD after storage", "setting": "[1]; [4]", "result": "Compound I dihydrochloride Form 2 was obtained"}
    ]},
    {"smiles": "CC[C@H]1CN2CCc3cc(OC)c(OC)cc3[C@@H]2C[C@@H]1C[C@H]1NCCc2cc(OC)c(OC)cc21", "note": "[Compound I dihydrochloride Form 2, (2S,3R,11bS)-2-(((R)-6,7-dimethoxy-1,2,3,4-tetrahydroisoquinolin-1-yl)methyl)-3-ethyl-9,10-dimethoxy-1,3,4,6,7,11b-hexahydro-2H-pyrido[2,1-a]isoquinoline dihydrochloride]", "values": [
      {"measurement": "Solid form by XRPD after storage", "setting": "[1]; stored at 40° C./75% RH for 22 h, dihydrochloride", "result": "maintained"}
    ]},
    {"smiles": "CC[C@H]1CN2CCc3cc(OC)c(OC)cc3[C@@H]2C[C@@H]1C[C@H]1NCCc2cc(OC)c(OC)cc21", "note": "[Compound I dihydrochloride Form 8, (2S,3R,11bS)-2-(((R)-6,7-dimethoxy-1,2,3,4-tetrahydroisoquinolin-1-yl)methyl)-3-ethyl-9,10-dimethoxy-1,3,4,6,7,11b-hexahydro-2H-pyrido[2,1-a]isoquinoline dihydrochloride]", "values": [
      {"measurement": "Solid form by XRPD after storage", "setting": "[1]; 1 h under ambient conditions", "result": "converted to Compound I dihydrochloride Form 2"},
      {"measurement": "Solid form by XRPD after storage", "setting": "[1]; 3 h under ambient conditions", "result": "converted to Form 2"}
    ]},
    {"smiles": "CC[C@H]1CN2CCc3cc(OC)c(OC)cc3[C@@H]2C[C@@H]1C[C@H]1NCCc2cc(OC)c(OC)cc21", "note": "[Compound I dihydrochloride Form 1, (2S,3R,11bS)-2-(((R)-6,7-dimethoxy-1,2,3,4-tetrahydroisoquinolin-1-yl)methyl)-3-ethyl-9,10-dimethoxy-1,3,4,6,7,11b-hexahydro-2H-pyrido[2,1-a]isoquinoline dihydrochloride]", "values": [
      {"measurement": "solubility", "setting": "[2]", "result": "> 200", "unit": "mg/mL"}
    ]},
    {"smiles": "CC[C@H]1CN2CCc3cc(OC)c(OC)cc3[C@@H]2C[C@@H]1C[C@H]1NCCc2cc(OC)c(OC)cc21", "note": "[mixture of Form 5 and Form 6]", "values": [
      {"measurement": "Solid form by XRPD after storage", "setting": "[1]; storage at 5° C. for about 2 weeks", "result": "Conversion to Form 5"},
      {"measurement": "Solid form by XRPD after storage", "setting": "[1]; [4]", "result": "conversion back to Compound I dihydrochloride Form 5"}
    ]},
    {"smiles": "CC[C@H]1CN2CCc3cc(OC)c(OC)cc3[C@@H]2C[C@@H]1C[C@H]1NCCc2cc(OC)c(OC)cc21", "note": "[Compound I dihydrochloride Form 7B, (2S,3R,11bS)-2-(((R)-6,7-dimethoxy-1,2,3,4-tetrahydroisoquinolin-1-yl)methyl)-3-ethyl-9,10-dimethoxy-1,3,4,6,7,11b-hexahydro-2H-pyrido[2,1-a]isoquinoline dihydrochloride]", "values": [
      {"measurement": "DVS uptake", "setting": "[3]; between 20-70% RH, cycle 2 sorption, material of large-scale Experiment 4 dried under vacuum at about 20° C. for 17.5 h", "result": 8.7, "unit": "%"},
      {"measurement": "DVS uptake", "setting": "[3]; between 40-80% RH, cycle 1 sorption", "result": "about 3%"},
      {"measurement": "DVS uptake", "setting": "[3]; between 80-90% RH, cycle 1 sorption", "result": "large uptake"},
      {"measurement": "Relative humidity of deliquescence", "setting": "[3]; post-DVS XRPD: amorphous material was recovered", "result": "about 90 % RH"}
    ]},
    {"smiles": "CC[C@H]1CN2CCc3cc(OC)c(OC)cc3[C@@H]2C[C@@H]1C[C@H]1NCCc2cc(OC)c(OC)cc21", "note": "[Compound I dihydrochloride Form 6, (2S,3R,11bS)-2-(((R)-6,7-dimethoxy-1,2,3,4-tetrahydroisoquinolin-1-yl)methyl)-3-ethyl-9,10-dimethoxy-1,3,4,6,7,11b-hexahydro-2H-pyrido[2,1-a]isoquinoline dihydrochloride]", "values": [
      {"measurement": "Solid form by XRPD after storage", "setting": "[1]; storage at ambient conditions", "result": "maintained"},
      {"measurement": "Solid form by XRPD after storage", "setting": "[1]; stored at 25° C./60% RH for 22 h", "result": "maintained"}
    ]}
  ]
}
